Measurements as given in ChEMBL document CHEMBL5512640, “Discovery of novel itaconimide-based derivatives as potent HDAC inhibitors for the efficient treatment of prostate cancer” (Eur J Med Chem, 2024).
Active and inactive are the calls of the source. No cut-off for these calls is given here.

Experiments:
[1] = test system: DU-145; test: Antiproliferative activity against human DU-145 cells incubated for 96 hrs by MTT assay; type: functional, cell-based; conditions: DU-145, 96 h
[2] = test system: PC-3; test: Antiproliferative activity against human PC-3 cells incubated for 96 hrs by MTT assay; type: functional, cell-based; conditions: PC-3, 96 h
[3] = test system: A549; test: Antiproliferative activity against human A549 cells incubated for 96 hrs by MTT assay; type: functional, cell-based; conditions: A549, 96 h
[4] = test system: NCI-H1650; test: Antiproliferative activity against human NCI-H1650 cells incubated for 96 hrs by MTT assay; type: functional, cell-based; conditions: NCI-H1650, 96 h
[5] = test system: MCF7; test: Antiproliferative activity against human MCF7 cells incubated for 96 hrs by MTT assay; type: functional, cell-based; conditions: MCF7, 96 h
[6] = test system: MDA-MB-231; test: Antiproliferative activity against human MDA-MB-231 cells incubated for 96 hrs by MTT assay; type: functional, cell-based; conditions: MDA-MB-231, 96 h
[7] = test system: LNCaP; test: Antiproliferative activity against human LNCaP cells incubated for 96 hrs by MTT assay; type: functional, cell-based
[8] = target: Histone deacetylase 2 (Homo sapiens, UniProt Q92769); test: Inhibition of human HDAC2 incubated for 10 mins followed by fluorogenic substrate addition by fluorescence based analysis
[9] = target: Histone deacetylase 4 (Homo sapiens, UniProt P56524); test: Inhibition of human HDAC4 incubated for 10 mins followed by fluorogenic substrate addition by fluorescence based analysis
[10] = target: Histone deacetylase 5 (Homo sapiens, UniProt Q9UQL6); test: Inhibition of human HDAC5 incubated for 10 mins followed by fluorogenic substrate addition by fluorescence based analysis
Chain of Histone deacetylase 5 (Q9UQL6 whole entry): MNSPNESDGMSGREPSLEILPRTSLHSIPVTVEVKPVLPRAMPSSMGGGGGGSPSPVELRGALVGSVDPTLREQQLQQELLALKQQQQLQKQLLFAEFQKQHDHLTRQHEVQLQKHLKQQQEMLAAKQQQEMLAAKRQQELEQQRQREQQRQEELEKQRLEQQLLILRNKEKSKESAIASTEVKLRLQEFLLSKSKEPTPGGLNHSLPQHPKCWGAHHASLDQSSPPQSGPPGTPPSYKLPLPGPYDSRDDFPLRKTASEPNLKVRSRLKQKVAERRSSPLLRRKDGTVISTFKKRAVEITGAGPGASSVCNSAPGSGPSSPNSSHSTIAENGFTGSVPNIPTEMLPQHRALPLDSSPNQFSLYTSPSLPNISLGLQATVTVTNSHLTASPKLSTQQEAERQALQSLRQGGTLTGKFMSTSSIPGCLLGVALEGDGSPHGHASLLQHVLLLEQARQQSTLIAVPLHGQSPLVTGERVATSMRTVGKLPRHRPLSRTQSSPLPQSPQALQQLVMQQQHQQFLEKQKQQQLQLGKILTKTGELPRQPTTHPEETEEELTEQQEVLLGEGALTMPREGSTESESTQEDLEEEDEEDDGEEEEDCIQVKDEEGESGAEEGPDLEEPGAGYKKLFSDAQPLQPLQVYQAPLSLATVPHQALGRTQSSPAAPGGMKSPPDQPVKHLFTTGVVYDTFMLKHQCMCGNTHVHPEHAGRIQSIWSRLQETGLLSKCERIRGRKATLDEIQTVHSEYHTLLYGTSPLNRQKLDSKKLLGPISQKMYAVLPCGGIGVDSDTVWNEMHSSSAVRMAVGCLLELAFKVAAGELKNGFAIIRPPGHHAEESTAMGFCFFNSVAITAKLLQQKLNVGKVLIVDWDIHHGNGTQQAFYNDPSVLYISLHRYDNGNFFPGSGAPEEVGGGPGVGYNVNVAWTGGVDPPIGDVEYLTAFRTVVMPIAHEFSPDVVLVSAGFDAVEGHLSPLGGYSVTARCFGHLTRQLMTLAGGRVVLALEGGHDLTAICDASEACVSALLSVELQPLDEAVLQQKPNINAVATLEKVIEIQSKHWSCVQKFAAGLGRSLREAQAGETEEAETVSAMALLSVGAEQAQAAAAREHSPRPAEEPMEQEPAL

[11] = target: Protein deacetylase HDAC6 (Homo sapiens, UniProt Q9UBN7); test: Inhibition of human HDAC6 incubated for 10 mins followed by fluorogenic substrate addition by fluorescence based analysis
Chain of Protein deacetylase HDAC6 (Q9UBN7 whole entry): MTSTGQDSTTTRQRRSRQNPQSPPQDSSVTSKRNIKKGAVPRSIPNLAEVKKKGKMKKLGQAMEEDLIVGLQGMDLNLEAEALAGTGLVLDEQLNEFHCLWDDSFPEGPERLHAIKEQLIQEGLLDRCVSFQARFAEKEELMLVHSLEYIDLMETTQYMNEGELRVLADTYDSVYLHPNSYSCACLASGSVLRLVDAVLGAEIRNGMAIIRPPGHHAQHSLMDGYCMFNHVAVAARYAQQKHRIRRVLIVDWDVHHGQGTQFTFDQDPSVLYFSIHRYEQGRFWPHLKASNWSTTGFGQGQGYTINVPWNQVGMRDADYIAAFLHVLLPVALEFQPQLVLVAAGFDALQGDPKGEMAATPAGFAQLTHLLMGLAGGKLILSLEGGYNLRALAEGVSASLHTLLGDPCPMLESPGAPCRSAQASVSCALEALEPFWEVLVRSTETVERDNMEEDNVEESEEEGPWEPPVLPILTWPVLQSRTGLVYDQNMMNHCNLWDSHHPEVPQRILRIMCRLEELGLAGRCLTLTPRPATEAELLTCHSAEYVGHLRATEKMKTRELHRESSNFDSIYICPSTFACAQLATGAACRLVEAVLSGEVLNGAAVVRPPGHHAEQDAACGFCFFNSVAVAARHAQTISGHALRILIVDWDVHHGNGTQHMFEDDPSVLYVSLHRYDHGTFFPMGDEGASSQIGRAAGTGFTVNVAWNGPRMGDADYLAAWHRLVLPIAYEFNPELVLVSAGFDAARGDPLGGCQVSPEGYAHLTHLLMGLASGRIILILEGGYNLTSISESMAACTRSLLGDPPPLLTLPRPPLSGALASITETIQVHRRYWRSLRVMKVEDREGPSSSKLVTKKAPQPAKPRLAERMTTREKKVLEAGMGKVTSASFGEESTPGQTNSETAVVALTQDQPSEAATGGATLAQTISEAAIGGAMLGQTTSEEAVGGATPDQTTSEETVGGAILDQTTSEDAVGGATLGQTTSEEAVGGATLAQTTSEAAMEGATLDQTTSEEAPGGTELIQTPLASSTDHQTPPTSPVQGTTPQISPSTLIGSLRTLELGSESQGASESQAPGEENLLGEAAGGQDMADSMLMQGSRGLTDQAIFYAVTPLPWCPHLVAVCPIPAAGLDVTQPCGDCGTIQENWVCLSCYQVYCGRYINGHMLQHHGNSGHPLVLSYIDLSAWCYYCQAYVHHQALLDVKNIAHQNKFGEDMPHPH

[12] = target: Histone deacetylase 7 (Homo sapiens, UniProt Q8WUI4); test: Inhibition of human HDAC7 incubated for 10 mins followed by fluorogenic substrate addition by fluorescence based analysis
Chain of Histone deacetylase 7 (Q8WUI4 whole entry): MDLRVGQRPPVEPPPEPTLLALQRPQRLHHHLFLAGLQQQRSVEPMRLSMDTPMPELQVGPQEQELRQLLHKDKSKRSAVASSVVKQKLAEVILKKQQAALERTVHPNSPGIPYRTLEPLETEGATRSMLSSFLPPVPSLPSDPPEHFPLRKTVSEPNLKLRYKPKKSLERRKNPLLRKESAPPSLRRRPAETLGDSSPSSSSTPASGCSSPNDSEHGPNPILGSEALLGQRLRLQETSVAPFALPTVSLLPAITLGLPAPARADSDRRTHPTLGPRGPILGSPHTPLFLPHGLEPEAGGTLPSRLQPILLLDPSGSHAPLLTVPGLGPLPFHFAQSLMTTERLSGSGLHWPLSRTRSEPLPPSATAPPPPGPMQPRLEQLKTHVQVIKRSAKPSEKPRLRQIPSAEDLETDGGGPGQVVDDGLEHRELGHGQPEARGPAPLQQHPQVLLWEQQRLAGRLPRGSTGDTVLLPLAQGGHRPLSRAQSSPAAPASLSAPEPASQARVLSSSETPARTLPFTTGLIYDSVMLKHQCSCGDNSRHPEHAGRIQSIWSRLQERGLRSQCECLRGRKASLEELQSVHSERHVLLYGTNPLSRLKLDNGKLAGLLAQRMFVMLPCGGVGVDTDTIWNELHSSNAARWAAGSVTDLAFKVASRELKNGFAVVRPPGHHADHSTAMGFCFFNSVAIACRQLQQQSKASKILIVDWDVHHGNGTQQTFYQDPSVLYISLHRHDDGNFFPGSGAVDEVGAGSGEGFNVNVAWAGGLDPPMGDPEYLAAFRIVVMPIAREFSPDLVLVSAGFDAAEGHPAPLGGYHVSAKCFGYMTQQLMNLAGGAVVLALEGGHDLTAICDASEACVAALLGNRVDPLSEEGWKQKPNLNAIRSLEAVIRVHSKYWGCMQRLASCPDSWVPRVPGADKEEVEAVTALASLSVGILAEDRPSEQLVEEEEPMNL

[13] = target: Histone deacetylase 8 (Homo sapiens, UniProt Q9BY41); test: Inhibition of human HDAC8 incubated for 10 mins followed by fluorogenic substrate addition by fluorescence based analysis
[14] = target: Histone deacetylase 9 (Homo sapiens, UniProt Q9UKV0); test: Inhibition of human HDAC9 incubated for 10 mins followed by fluorogenic substrate addition by fluorescence based analysis
Chain of Histone deacetylase 9 (Q9UKV0 whole entry): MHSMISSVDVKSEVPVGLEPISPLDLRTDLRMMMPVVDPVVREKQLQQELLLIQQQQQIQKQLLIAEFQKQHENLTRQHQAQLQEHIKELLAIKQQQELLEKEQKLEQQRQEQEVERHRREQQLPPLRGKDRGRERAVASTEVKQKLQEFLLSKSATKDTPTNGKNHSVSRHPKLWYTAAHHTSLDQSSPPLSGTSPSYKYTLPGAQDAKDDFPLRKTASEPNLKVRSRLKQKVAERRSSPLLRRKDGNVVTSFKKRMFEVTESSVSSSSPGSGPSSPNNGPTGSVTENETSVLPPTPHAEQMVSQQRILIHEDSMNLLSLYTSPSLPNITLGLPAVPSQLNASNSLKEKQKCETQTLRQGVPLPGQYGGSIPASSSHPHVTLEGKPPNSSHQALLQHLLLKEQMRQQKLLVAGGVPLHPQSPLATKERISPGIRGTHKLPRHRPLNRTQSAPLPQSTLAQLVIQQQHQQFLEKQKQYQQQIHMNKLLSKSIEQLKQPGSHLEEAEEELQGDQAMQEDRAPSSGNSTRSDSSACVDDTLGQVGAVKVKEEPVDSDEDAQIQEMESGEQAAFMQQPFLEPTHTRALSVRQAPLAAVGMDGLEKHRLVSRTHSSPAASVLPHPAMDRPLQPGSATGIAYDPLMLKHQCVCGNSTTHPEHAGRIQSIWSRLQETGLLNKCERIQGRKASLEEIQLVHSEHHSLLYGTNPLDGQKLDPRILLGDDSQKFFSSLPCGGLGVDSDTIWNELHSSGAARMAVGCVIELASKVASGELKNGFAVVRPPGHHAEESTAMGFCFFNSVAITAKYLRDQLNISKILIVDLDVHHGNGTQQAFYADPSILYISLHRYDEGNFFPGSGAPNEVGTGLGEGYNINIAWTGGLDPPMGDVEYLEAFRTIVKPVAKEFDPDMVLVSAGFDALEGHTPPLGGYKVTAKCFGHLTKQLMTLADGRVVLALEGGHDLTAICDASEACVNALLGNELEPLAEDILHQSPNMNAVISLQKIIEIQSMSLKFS

[15] = target: Polyamine deacetylase HDAC10 (Homo sapiens, UniProt Q969S8); test: Inhibition of human HDAC10 incubated for 10 mins followed by fluorogenic substrate addition by fluorescence based analysis
Chain of Polyamine deacetylase HDAC10 (Q969S8 whole entry): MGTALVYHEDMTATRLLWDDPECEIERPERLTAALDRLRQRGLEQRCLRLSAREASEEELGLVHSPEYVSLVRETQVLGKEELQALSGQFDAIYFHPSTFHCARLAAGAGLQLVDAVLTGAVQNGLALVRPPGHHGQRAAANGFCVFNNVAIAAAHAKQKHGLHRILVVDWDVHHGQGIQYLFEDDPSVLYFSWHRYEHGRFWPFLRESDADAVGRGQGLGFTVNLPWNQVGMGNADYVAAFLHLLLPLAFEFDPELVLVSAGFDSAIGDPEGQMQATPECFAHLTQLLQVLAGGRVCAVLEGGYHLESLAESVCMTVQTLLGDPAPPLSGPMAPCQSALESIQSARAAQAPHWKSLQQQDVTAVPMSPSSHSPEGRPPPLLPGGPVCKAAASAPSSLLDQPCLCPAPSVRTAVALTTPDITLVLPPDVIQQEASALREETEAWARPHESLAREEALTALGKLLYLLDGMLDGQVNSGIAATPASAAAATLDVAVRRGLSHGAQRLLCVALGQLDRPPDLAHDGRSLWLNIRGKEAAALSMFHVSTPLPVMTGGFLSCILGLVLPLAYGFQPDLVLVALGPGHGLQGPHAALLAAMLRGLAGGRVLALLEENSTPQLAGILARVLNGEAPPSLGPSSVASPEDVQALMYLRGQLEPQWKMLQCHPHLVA

[16] = test system: DU-145; test: Inhibition of colony formation in human DU-145 cells assessed as suppression of colony formation at 3.2 uM measured after […] by crystal violet staining based analysis relative to control; type: functional
[17] = test system: DU-145; test: Inhibition of cell migration in human DU-145 cells assessed as suppression of wound closure incubated for 12 hrs by wound healing assay; type: functional, cell-based; conditions: dose 0.2-1.6 µM
[18] = test system: DU-145; test: Induction of cell cycle arrest in human DU-145 cells assessed as increase in accumulation of cells at G2/M phase incubated for 24 hrs by PI staining based flow cytometry analysis; type: functional; conditions: dose 0.4-3.2 µM
[19] = test system: DU-145; test: Induction of apoptosis in human DU-145 cells measured after 72 hrs by annexin V-FITC and PI staining based flow cytometry analysis; type: functional, cell-based; conditions: dose 0.4-1.6 µM
[20] = test system: DU-145; test: Induction of apoptosis in human DU-145 cells assessed as apoptotic rate at 0.8 uM measured after 72 hrs by annexin V-FITC and PI staining based flow cytometry analysis (reference value: 3.41%); type: functional
[21] = test system: DU-145; test: Upregulation of histone H3 level in human DU-145 cells incubated for 24 hrs by Western blot analysis; type: functional, cell-based; conditions: dose 0.8-3.2 µM
[22] = test system: DU-145; test: Upregulation of Ac-H3 level in human DU-145 cells incubated for 24 hrs by Western blot analysis; type: functional, cell-based; conditions: dose 0.8-3.2 µM
[23] = test system: DU-145; test: Downregulation of HDAC6 expression in human DU-145 cells at 0.8 uM incubated for 24 hrs by Western blot analysis; type: functional, cell-based
[24] = AUC (0 to infinity) in Sprague-Dawley rat at 2 mg/kg, iv measured upto 24 hrs by LC-MS/MS analysis; type: ADME, organism-based; conditions: in vivo
[25] = Half life in Sprague-Dawley rat at 2 mg/kg, iv measured upto 24 hrs by LC-MS/MS analysis; type: ADME, organism-based; conditions: in vivo
[26] = Clearance in Sprague-Dawley rat at 2 mg/kg, iv measured upto 24 hrs by LC-MS/MS analysis; type: ADME, organism-based; conditions: in vivo
[27] = Volume of distribution in Sprague-Dawley rat at 2 mg/kg, iv measured upto 24 hrs by LC-MS/MS analysis; type: ADME, organism-based; conditions: in vivo
[28] = Cmax in Sprague-Dawley rat at 2 mg/kg, iv measured upto 24 hrs by LC-MS/MS analysis; type: ADME, organism-based; conditions: in vivo
[29] = AUC (0 to infinity) in Sprague-Dawley rat at 10 mg/kg, po measured upto 24 hrs by LC-MS/MS analysis; type: ADME, organism-based; conditions: in vivo
[30] = Half life in Sprague-Dawley rat at 10 mg/kg, po measured upto 24 hrs by LC-MS/MS analysis; type: ADME, organism-based; conditions: in vivo
[31] = Oral bioavailability in Sprague-Dawley rat at 10 mg/kg measured upto 24 hrs by LC-MS/MS analysis; type: ADME, organism-based; conditions: in vivo
[32] = Acute toxicity in female Sprague-Dawley rat assessed as effect on body weight at 500 to 4500 mg/kg, po measured every 3 days for 15 days; type: organism-based; conditions: in vivo, 360 h, dose 500-4500 mg/kg, time 15 day
[33] = Acute toxicity in Sprague-Dawley rat assessed as effect on heart at 500 to 4500 mg/kg, po measured after 15 days; type: organism-based; conditions: in vivo, 360 h, dose 500-4500 mg/kg, time 15 day
[34] = Acute toxicity in Sprague-Dawley rat assessed as effect on liver at 500 to 4500 mg/kg, po measured after 15 days; type: organism-based; conditions: in vivo, 360 h, dose 500-4500 mg/kg, time 15 day
[35] = Acute toxicity in Sprague-Dawley rat assessed as effect on spleen at 500 to 4500 mg/kg, po measured after 15 days; type: organism-based; conditions: in vivo, 360 h, dose 500-4500 mg/kg, time 15 day
[36] = Acute toxicity in Sprague-Dawley rat assessed as effect on lung at 500 to 4500 mg/kg, po measured after 15 days; type: organism-based; conditions: in vivo, 360 h, dose 500-4500 mg/kg, time 15 day
[37] = Acute toxicity in Sprague-Dawley rat assessed as pathological lesions at 500 to 4500 mg/kg, po measured after 15 days by H and E staining based analysis; type: organism-based; conditions: in vivo, 360 h, dose 500-4500 mg/kg, time 15 day
[38] = test system: DU-145; test: animal or person; type: functional, Homo sapiens; conditions: Mus musculus, DU-145, 960 h, route po, time 40 day, read-out: TGI
Description: Antitumor activity against human DU-145 cells xenografted in Balb/c nude mouse model assessed as tumor growth inhibition at 100 mg/kg, po administered once daily for 40 days relative to control

[39] = Toxicity in Balb/c mouse assessed as effect on body weight at 100 mg/kg, po measured upto 40 days in presence of docetaxel; type: organism-based; conditions: in vivo, 960 h, time < 40 day
[40] = test system: DU-145; test: Antitumor activity against human DU-145 cells xenografted in Balb/c nude mouse model assessed as tumor growth inhibition at 200 mg/kg, po administered once daily for 40 days in presence of docetaxel relative to control; type: functional; conditions: DU-145, 960 h, time 40 day, read-out: TGI
[41] = test system: DU-145; test: Antitumor activity against human DU-145 cells xenografted in Balb/c nude mouse model assessed as tumor growth inhibition at 100 mg/kg, po administered once daily for 40 days in presence of docetaxel relative to control; type: functional; conditions: DU-145, 960 h, time 40 day, read-out: TGI

SMILES: COc1ccccc1/C=C1\CC(=O)N(CCCCCCC(=O)NO)C1=O
- IC50 [1]: 160 nM
- IC50 [2]: 720 nM
- IC50 [3]: 1390 nM
- IC50 [4]: 3560 nM
- IC50 [5]: 350 nM
- IC50 [6]: 310 nM
- IC50 [7]: 630 nM
- IC50 [8]: 14.1 nM
- IC50 [9]: > 5000 nM
- IC50 [10]: > 5000 nM
- IC50 [11]: 3 nM
- IC50 [12]: > 5000 nM
- IC50 [13]: 566 nM
- IC50 [14]: > 5000 nM
- IC50 [15]: 72 nM
- inhibition at 3.2 µM [16]: 100%
- inhibition [17]: Dose-Dependent Effect
- Activity [18]: Dose-Dependent Effect
- Activity [19]: Dose-Dependent Effect
- Activity [20]: 27.45%
- Activity [21]: Dose-Dependent Effect
- Activity [22]: Dose-Dependent Effect
- Activity [23]: Active
- AUC(0-inf) [24]: 1630 ng·h/mL
- half-life [25]: 3.12 h
- clearance [26]: 26.2 mL/min/kg
- Vd [27]: 4.63 L/kg
- Cmax [28]: 852 ng/mL
- AUC(0-inf) [29]: 3800 ng·h/mL
- half-life [30]: 2.87 h
- bioavailability [31]: 46.5%
- Activity [32]: Non-Toxic
- Activity [33]: Non-Toxic
- Activity [34]: Non-Toxic
- Activity [35]: Non-Toxic
- Activity [36]: Non-Toxic
- Activity [37]: Non-Toxic
- inhibition in vivo at 100 mg/kg [38]: 50.9%
- Activity [39]: Non-Toxic
- inhibition in vivo at 200 mg/kg [40]: 81.3%
- inhibition in vivo at 100 mg/kg [41]: 71.4%
